Reference: patent US20170166516A1, “STABLE POLYMORPH FORM B OF TAPENTADOL HYDROCHLORIDE” (priority 2014, published 2017)
Structures can show the parent of a compound that is named as a salt.

Tests used:
[1] = Stability test of polymorphic Form B on storage, followed by PXRD; format: physicochemical; details: for change in amount of polymorphic Form A in Form B on storage (PXRD): 2 month storage, ambient temperature, sample contains traces of Form A, Hydrochloride
Description: In FIG. 1 the PXRD pattern of a stability sample experiment 1 are shown as well as PXRD pattern of Tapentadol hydrochloride in polymorphic crystal structure A and in polymorphic crystal structure B. The upper most pattern results from a sample (experiment 1) after a 4 month stability test at 27° C. and 42% RH (relative humidity). The second of top pattern results from the initial sample prior to the stability testing. […] The second last pattern represents the mono-crystal structure of pure Tapentadol Hydrochloride in polymorphic crystal Form B. The last pattern represents the mono-crystal structure of pure Tapentadol Hydrochloride in polymorphic crystal Form A.
For Powder X-Ray Diffraction (PXRD) the samples were placed onto a Si-wafer (Bragg-Brentano) or into a standard glass capillary (Ø=0.7 mm) (Example 2). The measurements were performed at room temperature with a D8 Bruker Advance Diffractometer (Cu-Kα1=1.54059 Å, Johansson primary beam monochromator, position sensitive detector) in transmission mode with rotation of the sample.

[2] = cited from earlier work; for stability of the crystalline form: ambient conditions, as disclosed in EP 1 612 203 A1, hydrochloride

## CC[C@@H](c1cccc(O)c1)[C@@H](C)CN(C)C [Example 3, Tapentadol Hydrochloride]
[1]
  change in amount of polymorphic Form A in Form B on storage (PXRD): increase of Form A in Form B was observed
[1]; listed as experimental polymorphic Form B
  change in amount of polymorphic Form A in Form B on storage (PXRD): amount of polymorphic Form A obviously increased

## CC[C@@H](c1cccc(O)c1)[C@@H](C)CN(C)C [Form A, Tapentadol hydrochloride]
[2]
  stability of the crystalline form: stable under ambient conditions

## CC[C@@H](c1cccc(O)c1)[C@@H](C)CN(C)C [Form B, Tapentadol hydrochloride]
[2]
  stability of the crystalline form: meta-stable only

## CC[C@@H](c1cccc(O)c1)[C@@H](C)CN(C)C [experiment 1, Tapentadol Hydrochloride]
[1]; 4 month stability test at 27° C. and 42% RH
  transformation of polymorphic crystal Form B to Form A (PXRD pattern after stability test): does not show any tendency to disintegrate or to transform to polymorphic crystal Form A
[1]; several months of storage under ambient conditions, no seeds of Form A
  transformation of Form B to polymorph A on storage (PXRD): no transformation to polymorph A

## CC[C@@H](c1cccc(O)c1)[C@@H](C)CN(C)C [stable polymorph B, Tapentadol hydrochloride]
[2]; ambient temperatures, stabilised by low alkyl carboxylic acids or esters added during crystallization, WO 2013 111161 A1
  duration of stability of polymorphic Form B: several months
